Test results published in PMC6838683, “Discovery of Human Signaling Systems: Pairing Peptides to G Protein-Coupled Receptors” (Cell, 2019).
Read-outs that look alike come from different tables or passages of the source.

Tests used:
GPR1 [1] = target: T1, GPR1 (Homo sapiens, UniProt P46091); test: β-arrestin recruitment (PathHunter); format: cell-based; conditions: GPR1; mean, SEM and n; read-out: pEC50, PathHunter (fold over basal) (converted)
T1 sequence (P46091 1-355): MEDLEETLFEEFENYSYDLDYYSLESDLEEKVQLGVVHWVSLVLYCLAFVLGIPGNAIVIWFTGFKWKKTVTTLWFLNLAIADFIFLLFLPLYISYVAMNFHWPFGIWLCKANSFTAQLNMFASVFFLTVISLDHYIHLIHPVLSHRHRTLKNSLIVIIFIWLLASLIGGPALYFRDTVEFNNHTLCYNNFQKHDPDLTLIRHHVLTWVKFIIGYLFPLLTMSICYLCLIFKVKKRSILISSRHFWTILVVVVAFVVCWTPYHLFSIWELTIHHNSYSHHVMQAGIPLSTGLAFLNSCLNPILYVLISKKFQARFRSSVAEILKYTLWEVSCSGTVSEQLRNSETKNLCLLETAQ
Method: PathHunter eXpress Assays (DiscoverX) were performed in 384-well format according to the manufacturer’s recommendations. GPR1 cells were incubated with peptides for 90 min and luminescence measured using an EnSpire 2300 Multimode plate reader (PerkinElmer).

GPR1 [2] = target: T1, GPR1; test: β-arrestin recruitment (Tango), validation; format: cell-based; parameters: host or cells: HTLA cells (HEK293-derived); conditions: pEC50, Tango (fold over basal), GPR1; mean, SEM and n
BB3 [3] = target: T2, BB3 (Homo sapiens, UniProt P32247); test: Dynamic mass redistribution (DMR), concentration-response; format: cell-based
T2 construct: hIL-2Ra signal peptide (N); expressed in transfected cells
T2 sequence (P32247 2-399 limits assumed): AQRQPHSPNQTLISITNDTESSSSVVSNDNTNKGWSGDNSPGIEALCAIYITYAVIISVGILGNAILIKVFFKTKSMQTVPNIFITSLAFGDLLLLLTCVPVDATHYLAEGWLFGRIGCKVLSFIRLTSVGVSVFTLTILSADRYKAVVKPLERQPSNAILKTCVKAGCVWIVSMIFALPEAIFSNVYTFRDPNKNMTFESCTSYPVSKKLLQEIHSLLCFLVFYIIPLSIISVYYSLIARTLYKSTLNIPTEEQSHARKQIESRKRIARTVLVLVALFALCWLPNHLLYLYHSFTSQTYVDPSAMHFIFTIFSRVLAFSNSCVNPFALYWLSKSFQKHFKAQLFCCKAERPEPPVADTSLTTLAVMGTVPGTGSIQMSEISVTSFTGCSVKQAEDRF

BB3 [4] = target: T2, BB3; test: Real-time receptor internalization (TR-FRET), concentration-response; format: cell-based
BB3 [5] = target: T3, BB3 (Homo sapiens, UniProt P32247); test: β-arrestin recruitment (Tango), validation; format: cell-based
T3 construct: host or cells: HTLA cells (HEK293-derived)
T3 sequence (P32247 1-399): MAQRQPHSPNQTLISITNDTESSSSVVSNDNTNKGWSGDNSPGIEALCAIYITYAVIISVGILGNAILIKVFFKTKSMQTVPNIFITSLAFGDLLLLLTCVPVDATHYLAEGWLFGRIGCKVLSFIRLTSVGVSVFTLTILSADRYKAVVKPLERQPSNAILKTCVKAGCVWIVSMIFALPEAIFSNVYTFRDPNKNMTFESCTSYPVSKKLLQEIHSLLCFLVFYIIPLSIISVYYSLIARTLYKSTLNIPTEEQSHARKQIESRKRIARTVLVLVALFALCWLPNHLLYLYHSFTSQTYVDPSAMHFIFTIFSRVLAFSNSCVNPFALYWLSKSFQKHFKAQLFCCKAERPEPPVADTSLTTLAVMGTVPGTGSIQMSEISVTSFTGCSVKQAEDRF
Method: The peptide library was additionally screened against 120 GPCR targets in parallel, including all available orphan receptors and 27 known class A peptide receptors using the Tango assay platform ([Kroeze et al., 2015]). Briefly, HTLA cells (a HEK293 cell line stably expressing a tTA-dependent luciferase reporter and a β-arrestin2-TEV fusion gene) were plated 10,000 cells/well in poly-L-lysine–coated clear-bottom white 384-well plates in DMEM supplemented with 10% FBS, 100 U/ml penicillin and 100 μg/ml streptomycin, 2 μg/ml puromycin and 100 μg/ml hygromycin B. 24 hr later, cells were transfected with Tango GPCR constructs using the calcium phosphate method ([Jordan et al., 1996]). The next day, culture medium was changed to DMEM + 1% dFBS and 10 μM peptides were added for overnight stimulation. Bright-Glo solution (Promega) was incubated for 15–20 min at room temperature, and luminescence was counted using a Trilux luminescence counter (Wallac).
For subsequent peptide validation experiments using Tango assays, HTLA cells were transiently transfected in 10 cm dishes with the receptor of interest using polyethylenimine (PEI) ([Longo et al., 2013]). After 24 hr, 25,000 cells/well were plated in clear bottom, white-walled 384-well plates. Assays were performed as described above, with luminescence measured using an EnSpire 2300 Multimode plate reader (PerkinElmer). Luminescence counts were exported into Excel and were analyzed using GraphPad Prism 7.

BB3 [6] = target: T2, BB3; test: IP1 accumulation (Gq/11), HTRF; format: cell-based
human GPCRs = tested on: human GPCRs; parameters: method as in Guide to Pharmacology database; conditions: max reported value, ref Guide to Pharmacology database, cited from earlier work
Excerpt: Supplement mmc1.xlsx, sheet "HumanGPCRLigands" | column: pKi_value; pKd_value; pEC50_value; pIC50_value

GPR68 [7] = target: T4, GPR68 (Homo sapiens, UniProt Q15743); test: Real-time receptor internalization (TR-FRET), concentration-response; format: cell-based; parameters: hIL-2Ra signal peptide (N); expressed in transfected cells; conditions: receptor GPR68; mean, SEM and n (3)
T4 sequence (Q15743 2-365 limits assumed): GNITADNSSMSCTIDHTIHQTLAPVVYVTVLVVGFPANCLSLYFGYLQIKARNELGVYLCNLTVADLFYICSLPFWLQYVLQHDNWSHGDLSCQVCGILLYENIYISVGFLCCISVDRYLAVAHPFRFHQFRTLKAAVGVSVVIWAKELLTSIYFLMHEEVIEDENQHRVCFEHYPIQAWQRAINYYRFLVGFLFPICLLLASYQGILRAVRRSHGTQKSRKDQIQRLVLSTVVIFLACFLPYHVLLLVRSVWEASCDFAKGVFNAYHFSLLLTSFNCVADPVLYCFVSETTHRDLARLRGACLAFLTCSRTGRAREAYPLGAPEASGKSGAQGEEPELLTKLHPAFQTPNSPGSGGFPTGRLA
Method: (§1) 48 hr prior to parallel assaying, SNAP-tagged oGPCR cells were plated (10,000 cells/well) in fibronectin-coated 384-well Epic biosensor microplates (Corning) and poly-D-lysine coated white 384-well plates (for internalization assays). SNAP- GLP-1 receptor was plated alongside orphan receptor cells as an internal assay control for internalization assays. Receptor-expression was induced with 0.1 μg/ml doxycycline.
A TR-FRET real-time internalization assay was used to examine peptide-dependent changes in orphan receptor localization as described previously ([Foster and Bräuner-Osborne, 2018]). Surface-expressed SNAP-tagged receptors were labeled with a cell-impermeable luminescent terbium cryptate (100 nM SNAP Lumi4-Tb; Cisbio, France) for 1 hr at 37°C. Cells were washed to remove excess terbium and incubated with fluorescein-O-acetic acid (100 μM; Sigma Aldrich) for 5 min at 37°C. Peptides were added as for DMR assays, and internalization responses were recorded for 60 min at 37°C using an EnVision 2104 Multimode plate reader (PerkinElmer). 100 nM GLP-1 was used as a positive control for SNAP-GLP1R internalization. Real-time internalization responses were calculated based on TR-FRET (excitation 340 nm; emission 520 nm and 615 nm), and were expressed as the ratio between donor (terbium) and acceptor (fluorescein) emission. For peptide screening analysis (both DMR and internalization assays), we calculated the area under the curve from the real-time traces. As the magnitude of the responses was variable between orphan receptor targets, particularly for the SNAP-tag based internalization assay where the signal is dependent on receptor surface expression, the AUC values were normalized to their respective plate averages and expressed as fold change. Validation experiments for receptor internalization were performed as above. Internalization data was processed in MS-Excel and area under the curve was used to generate concentration-response curves using GraphPad Prism 7.0. Data represent mean ± standard error of the mean (SEM) from at least 3 biologically independent experiments.

GPR68 [8] = target: T4, GPR68; test: Dynamic mass redistribution (DMR), concentration-response; format: cell-based; parameters: hIL-2Ra signal peptide (N); expressed in transfected cells; conditions: receptor GPR68; mean, SEM and n (3-4)
Method: as §1
DMR assays provide a single integrated readout of ligand-dependent cellular response, utilizing an optical biosensor in specialized microplates to detect wavelength shifts of reflected light as it passes through the biosensor and the lower portion of the cell (∼150-200 nm). As a signal pathway agnostic approach, DMR assays are well-suited to the study of GPCRs ([Fang et al., 2008], [Schröder et al., 2011]). The mass redistribution response (Δ picometer (pm)) likely reflects a number of intracellular events, including cytoskeletal rearrangement, protein trafficking and receptor internalization. Orphan receptor-expressing cells were gently washed twice with assay buffer (HBSS with 1 mM CaCl2, 1 mM MgCl2, 20 mM HEPES, 0.01% pluronic F-68, pH 7.4) containing 0.1% DMSO and cells were equilibrated for 90 min at 22°C in the EPIC Benchtop (BT) System (Corning) to establish a stable DMR signal. After 3-5 min baseline recordings, peptides (10 μM) were added in duplicate wells using an electronic 384-channel Viaflo pipette (Integra Biosciences, Switzerland) and DMR responses were measured for 60 min at 22°C. 100 nM norepinephrine was included as an internal assay control to assess the cellular DMR response via endogenously-expressed adrenoceptors in the TREx 293 cells. Real-time data were processed using the BT to column converter MS-Excel macro (Corning) and analyzed in GraphPad Prism 7.0. DMR recordings in peptide screening experiments were buffer and solvent corrected and the area under the curve (AUC) was quantified. For subsequent validation experiments, peptides were diluted in assay buffer containing 0.1% DMSO and DMR assays were performed as above. […] Data represent mean ± standard error of the mean (SEM) from at least 3 biologically independent experiments.

[9] = receptor grpr_human (GRPR, P30550)
[10] = HTLA cells transiently transfected, overnight stimulation, luciferase, mean ± SEM of 3-4 independent experiments in triplicate, read-out: pEC50, β-arrestin recruitment (Tango), BB3 (converted)

For `CSCC[C@H](NC(=O)[C@H](CC(C)C)NC(=O)[C@H](Cc1c[nH]cn1)NC(=O)CNC(=O)[C@@H](NC(=O)[C@H](C)NC(=O)[C@H](Cc1c[nH]c2ccccc12)NC(=O)[C@H](Cc1c[nH]cn1)NC(=O)[C@H](CC(N)=O)NC(=O)CNC(=O)[C@H](CCCN=C(N)N)NC(=O)[C@@H]1CCCN1C(=O)[C@H](Cc1ccc(O)cc1)NC(=O)[C@H](CCSC)NC(=O)[C@H](CCCCN)NC(=O)[C@@H](NC(=O)[C@H](CC(C)C)NC(=O)[C@@H](NC(=O)[C@@H](NC(=O)CNC(=O)CNC(=O)CNC(=O)[C@H](C)NC(=O)[C@@H]1CCCN1C(=O)[C@H](CC(C)C)NC(=O)[C@@H]1CCCN1C(=O)[C@@H](N)C(C)C)[C@@H](C)O)C(C)C)[C@@H](C)O)C(C)C)C(N)=O` [Gastrin-releasing peptide (GRP)], the EC50 (GPR1 [1]) was 398 nM, the EC50 (GPR1 [2]) was 5.5 µM and the EC50 (BB3 [3]; pEC50, DMR (peak), BB3, mean, SEM and n) was 2040 nM. It also gave an EC50 (BB3 [4]; pEC50, Internalization (AUC)) of 14.8 µM, an EC50 (BB3 [5]; BB3, mean, SEM and n, read-out: pEC50, Tango (fold over basal) (converted)) of 43.7 µM and an EC50 (BB3 [6]; pEC50, IP1 (nM), BB3, mean, SEM and n) of 447 nM.
In the case of `CSCC[C@H](NC(=O)[C@H](Cc1ccccc1)NC(=O)[C@H](Cc1c[nH]cn1)NC(=O)CNC(=O)[C@@H](NC(=O)[C@H](C)NC(=O)[C@H](Cc1c[nH]c2ccccc12)NC(=O)[C@H](CC(C)C)NC(=O)[C@H](CC(N)=O)NC(=O)CN)[C@@H](C)O)C(N)=O` [Peptide 59, Neuromedin B, reference compound], the pIC50_value (human GPCRs; [9]) is given as 7.5, the pKi_value (human GPCRs; [9]) is given as 8.1 and the pKi_value (human GPCRs; receptor nmbr_human (NMBR, P28336)) is given as 10.3. The EC50 (BB3 [3]) was 37.2 nM, the “Emax, DMR (peak)” value (BB3 [3]; BB3, mean, SEM and n) was 183.2 and the “Emax, Internalization (AUC)” value (BB3 [4]; BB3, mean, SEM and n) was 26.4. The EC50 (BB3 [4]; BB3, mean, SEM and n, read-out: pEC50, Internalization (AUC) (converted)) was 1.95 µM, the “Emax, Tango (fold over basal)” value (BB3 [5]; BB3, mean, SEM and n) was 5.0 fold over basal and the “pEC50, Tango (fold over basal)” value (BB3 [5]; BB3, mean, SEM and n) was 5.67. The EC50 (BB3 [5]; [10]) was 2 µM, the “Emax, IP1” value (BB3 [6]; BB3, mean, SEM and n) was 81.0 nM and the EC50 (BB3 [6]; pEC50, IP1 accumulation (Gq/11), BB3, HTRF IP-One, 30 min, 37°C, mean ± SEM of 3-4 independent experiments in triplicate, peptide 158 n = 2) was 407 nM.
For `CSCC[C@H](NC(=O)[C@H](CC(C)C)NC(=O)[C@H](Cc1c[nH]cn1)NC(=O)CNC(=O)[C@@H](NC(=O)[C@H](C)NC(=O)[C@H](Cc1c[nH]c2ccccc12)NC(=O)[C@H](Cc1c[nH]cn1)NC(=O)[C@H](CC(N)=O)NC(=O)CNC(=O)[C@H](CCCNC(=N)N)NC(=O)[C@@H]1CCCN1C(=O)[C@H](Cc1ccc(O)cc1)NC(=O)[C@H](CCSC)NC(=O)[C@H](CCCCN)NC(=O)[C@@H](NC(=O)[C@H](CC(C)C)NC(=O)[C@@H](NC(=O)[C@@H](NC(=O)CNC(=O)CNC(=O)CNC(=O)[C@H](C)NC(=O)[C@@H]1CCCN1C(=O)[C@H](CC(C)C)NC(=O)[C@@H]1CCCN1C(=O)[C@@H](N)C(C)C)[C@@H](C)O)C(C)C)[C@@H](C)O)C(C)C)C(N)=O` [Peptide 167, gastrin-releasing peptide, reference compound], the pIC50_value (human GPCRs; [9]) is listed as 10, the pKi_value (human GPCRs; [9]) is listed as 8.2 and the EC50 (BB3 [4]; pEC50, internalization, BB3) is listed as over 10 µM. For the same compound, the EC50 (BB3 [5]; [10]) was over 10 µM.
With RFGIPMDRIGRNRLSNSRG [128 original] the “Internalization assays Emax (AUC)” value (GPR68 [7]) was 8.3 and the “DMR assays Emax (peak or AUC)” value (GPR68 [8]) was 893047.
